Data as given in patent US20050238619A1, “Method for the delivery of sustained release agents” (priority 2004, published 2005).

Experiments:
[1] = Fluorescein retention in RF ablated hepatic tumors in clinical studies, estimated from serial urine samples; assay type: in vivo, patients; details: patient 1, after 12 days; 1 ml of 10% fluorescein (100 mg), 20 injections; estimated 2 L urine/day; FIG. 6
Method: Six patients with unresectable hepatic metastases or hapatocellular carcinoma were enrolled in the Internal Review Board approved protocol following the process of informed consent. Eligibility required that the patient receive RFA for therapeutic intent. RFA was performed using a RadioTherapeutics® device according to their specifications. Subsequently, 1 ml of 10% fluorescein was injected into the ablated tissue (20 different injections).
Because 98% of fluorescein is excreted in the urine, the amount of released and retained fluorescein could be estimated from serial urine sample. Serially, first morning void urine samples were collected and assessed for fluorescein. The retained fluorescein was calculated by subtracting the estimated excreted fluorescein (measured fluorescein (mg/mL)×estimated 2 L urine/day volume) from the total injected fluorescein (100 mg).

[2] = Fluorescein retention by RF ablated bovine liver versus number of injections (fluorimeter); assay type: in vitro ADME; details: total volume 0.5 mL, tissue washed over 10 minutes, FIG. 2
Method: Ablated bovine liver, prepared as in Example 1, was injected 3, 10, or 30 times with fluorescein (total volume of 0.5 mL). The tissue was extensively washed over 10 minutes; and the retained fluorescein was calculated as a percentage of the total injected fluorescein. To quantify the retained fluorescein, the washed tissue was homogenized, centrifuged and the supernatant assessed for fluorescein using a fluorimeter with excitation and emission filters of 485 nm and 525 nm, respectively.

[3] = Release of fluorescein from RF ablated bovine liver tissue; assay type: in vitro ADME; details: FIG. 3
From the text: To determine the rate of fluorescein release, bovine liver was ablated with RF and injected with fluorescein. […] However, after one week of continued washing, the ablated tissue still contained greater than 50% of the original fluorescein.

[4] = Fluorescein retention in RF ablated subcutaneous Ras-6 tumors in vivo; parameters: species or system Balb/c female mice; details: Ras-6 flank tumors, RFA, 50 μl fluorescein in 1 to 3 injections; FIG. 4
Method: Balb/c female mice were injected with 10^6 Ras-6 tumor cells in the flank. The Ras-6 tumor was derived by transfection of a p53-null BALB/c murine embryo fibroblast line with a mutant ras gene. Once the tumors reached 0.5-1 cm in size, the animals were placed under general anesthesia; and the tumors was ablated using a 0.7 cm multi-tined probe. RFA was accomplished by starting with 1-3 watts of power and increasing the power every 30 seconds. A special resistor circuit was placed in the circuit to avoid a low resistance default interrupt error built into the RFA generator. Following RFA, the tumors were injected with a total volume of 50 μl of fluorescein using 1 to 3 injections. At various intervals, the animals were sacrificed and the retained fluorescein assessed. FIG. 4 depicts the residual fluorescein after 1, 3, and 8 days. Consistent with the ex vivo studies, the amount of fluorescein decreases over this time interval; however, substantial fluorescein remains in the ablated tumor for ar least 8 days in vivo.

[5] = Fluorescein retention in RF ablated bovine liver, washed in PBS and photographed under UV light; assay type: in vitro ADME; details: ablated bovine liver bivalved, agitated in 1 L PBS exchanged daily; photographed under UV light; FIG. 1
From the text: Bovine liver was ablated, injected multiple times with fluorescein. […] The PBS was exchanged daily for two weeks. At weekly intervals, the ablated tissue was photographed under ultraviolet (UV) light. […] This approach can be used to help train and assess people to use the technique.

[6] = general statement used as the basis of the calculation; cited from earlier work

In the case of `O=C1OC2(c3ccc(O)cc3Oc3cc(O)ccc32)c2ccccc21` [fluorescein], the “calculated fluorescein retained in the ablated tumor” value [1] was “greater than 90%”, the “retained fluorescein as a percentage of the total injected fluorescein” value (from here on “retained fluorescein as a percentage”) ([2]; 3 injections) was 41% and the “retained fluorescein as a percentage” value ([2]; 10 injections) was 49%. The “retained fluorescein as a percentage” value ([2]; 30 injections) was “about 65%”, the “course of released fluorescein” value ([3]; RF ablated bovine liver, continued washing) was “exponential decline” and the “fluorescein still contained in the ablated tissue, of the original fluorescein” value ([3]; after one week of continued washing) was “greater than 50%”. The “time substantial fluorescein remains in the ablated tumor in vivo” value [4] was no less than 8 days, the “time fluorescein was detected within the ablated tissue” value [5] was “at least two weeks” and the “fluorescein excreted in the urine” value [6] was 98%.
